Data taken from the supplement of paper PMC10307832.

How the values were obtained:
Assay in all cases: relative viability (nuclei count vs DMSO), 5 days (fraction); higher = more cells survive
GSK126 + Olaparib = compound: CC[C@H](C)N1C=C(C2=C(C=C(C=C21)C3=CN=C(C=C3)N4CCNCC4)C(=O)NCC5=C(C=C(NC5=O)C)C)C [GSK126] + O=C(c1cc(Cc2n[nH]c(=O)c3ccccc23)ccc1F)N1CCN(C(=O)C2CC2)CC1 [Olaparib] (partner 8 µM)
Outline: (§1)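 Five library-drug doses in √10 steps were combined with a fixed anchor-drug dose, or a single drug was given alone, by pin tool to lung cancer cell lines in 1536-well plates the day after seeding. Nuclei were stained and counted after 5 days. Relative viability is the nuclei count in treated wells over that in vehicle wells, taken as the median of duplicate plates.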

GSK126 + Lapatinib = compound: CC[C@H](C)N1C=C(C2=C(C=C(C=C21)C3=CN=C(C=C3)N4CCNCC4)C(=O)NCC5=C(C=C(NC5=O)C)C)C [GSK126] + CS(=O)(=O)CCNCc1ccc(-c2ccc3ncnc(Nc4ccc(OCc5cccc(F)c5)c(Cl)c4)c3c2)o1 [Lapatinib] (partner 2 µM)
Outline: as §1

[1] = compound: C1CC(C1)(C(=O)O)C(=O)O.[NH2-].[NH2-].[Pt+2] [Carboplatin] + CC(=O)c1c(C)c2cnc(Nc3ccc(N4CCNCC4)cn3)nc2n(C2CCCC2)c1=O [Palbociclib] (partner 0.5 µM)
Outline: as §1

Carboplatin + Pictilisib = compound: C1CC(C1)(C(=O)O)C(=O)O.[NH2-].[NH2-].[Pt+2] [Carboplatin] + CS(=O)(=O)N1CCN(Cc2cc3nc(-c4cccc5[nH]ncc45)nc(N4CCOCC4)c3s2)CC1 [Pictilisib] (partner 1 µM)
Outline: as §1

Cell Line | relative viability (GSK126 + Olaparib; first compound 0.08 µM) | relative viability (GSK126 + Olaparib; first compound 0.253 µM) | relative viability (GSK126 + Olaparib; first compound 0.8 µM) | relative viability (GSK126 + Olaparib; first compound 2.53 µM) | relative viability (GSK126 + Olaparib; first compound 8 µM) | relative viability (GSK126 + Lapatinib; first compound 0.08 µM) | relative viability (GSK126 + Lapatinib; first compound 0.253 µM) | relative viability (GSK126 + Lapatinib; first compound 0.8 µM) | relative viability (GSK126 + Lapatinib; first compound 2.53 µM) | relative viability (GSK126 + Lapatinib; first compound 8 µM) | relative viability ([1]; first compound 0.08 µM) | relative viability ([1]; first compound 0.253 µM) | relative viability ([1]; first compound 0.8 µM) | relative viability ([1]; first compound 2.53 µM) | relative viability ([1]; first compound 8 µM) | relative viability (Carboplatin + Pictilisib; first compound 0.08 µM) | relative viability (Carboplatin + Pictilisib; first compound 0.253 µM) | relative viability (Carboplatin + Pictilisib; first compound 0.8 µM) | relative viability (Carboplatin + Pictilisib; first compound 2.53 µM) | relative viability (Carboplatin + Pictilisib; first compound 8 µM)
NCI-H647 | 0.742 | 0.438 | 0.57 | 0.714 | 0.56 | 1.22 | 1.01 | 0.927 | 1.11 | 0.865 | 0.433 | 0.542 | 0.388 | 0.229 | 0.37 | 0.572 | 0.477 | 0.368 | 0.482 | 0.429
NCI-H1651 | 0.183 | 0.175 | 0.176 | 0.178 | 0.161 | 0.896 | 0.834 | 0.805 | 0.843 | 0.894 | 0.514 | 0.488 | 0.507 | 0.498 | 0.413 | 0.681 | 0.498 | 0.644 | 0.452 | 0.411
NCI-H1437 | 0.649 | 0.621 | 0.605 | 0.554 | 0.575 | 0.95 | 0.729 | 0.776 | 0.748 | 0.852 | 0.302 | 0.316 | 0.273 | 0.272 | 0.31 | 0.433 | 0.401 | 0.414 | 0.381 | 0.413
NCI-H1975 | 0.785 | 0.789 | 0.721 | 0.809 | 0.762 | 0.952 | 0.898 | 0.916 | 0.852 | 0.888 | 0.572 | 0.625 | 0.56 | 0.601 | 0.518 | 0.324 | 0.305 | 0.306 | 0.315 | 0.302
BEN | 1.23 | 1.01 | 1.16 | 1.13 | 1.12 | 0.818 | 0.826 | 0.756 | 0.799 | 0.811 | 0.467 | 0.442 | 0.488 | 0.44 | 0.494 | 0.69 | 0.587 | 0.515 | 0.525 | 0.609
NCI-H2170 | 0.603 | 0.669 | 0.559 | 0.54 | 0.529 | 0.253 | 0.266 | 0.319 | 0.288 | 0.27 | 0.39 | 0.411 | 0.384 | 0.379 | 0.342 | 0.361 | 0.266 | 0.357 | 0.33 | 0.283
HCC-44 | 1.01 | 1.02 | 1.03 | 0.92 | 1 | 0.998 | 1.07 | 1.04 | 0.846 | 1.02 | 0.994 | 0.975 | 1 | 0.859 | 0.89 | 0.577 | 0.552 | 0.666 | 0.554 | 0.592
NCI-H3122 | 0.713 | 0.712 | 0.628 | 0.654 | 0.628 | 1.01 | 1.01 | 1.04 | 0.965 | 0.95 | 0.17 | 0.211 | 0.17 | 0.183 | 0.189 | 0.62 | 0.659 | 0.549 | 0.593 | 0.563
